Patent publication US9561220B2, “Group of alkaloids, the novel autophagic enhancers for treatment of cancers and neurodegenerative conditions thereof” (Macau University of Science and Technology, priority 2014, dated 2017)

Test system: panel of human cancer cells (HeLa, MCF-7, HepG2, Hep3B, H1299, A549, PC3)
Experiment: cells
Type: cell-based
Conditions: Homo sapiens, 72 h, read-out: mean IC50 value (cell cytotoxicity)
Protocol: The test compounds of liensinine, isoliensinine, dauricine, cepharanthine, hernandezine and thalidezine were dissolved in DMSO at a final concentration of 100 mmol/L and stored at −20° C. Cytotoxicity was assessed using the 3-(4,5-dimethylthiazol-2-yl)-2,5-diphenyltetrazolium bromide assay as described previously. 4000-8000 HeLa (human cervical cancer), MCF-7 (human breast cancer), HepG2 (human liver cancer), Hep3B (human liver cancer), H1299 (human lung cancer), A549 (human lung cancer), PC3 (human prostate cancer) and LO2 (human normal liver) cells were seeded on 96-well plates per well. After overnight pre-incubation, the cells were exposed to different concentrations of liensinine, isoliensinine, dauricine, cepharanthine, hernandezine and thalidezine (0.039-100 μmol/L) for 3 days. Specifically, the following concentrations are used for all of the above alkaloids: […], 0.039 μmol/L. Subsequently, 10 μL of MTT reagents was added to each well and incubated at 37° C. for 4 hours followed by the addition of 100 μL solubilization buffer (10% SDS in 0.01 mol/L HCl) and overnight incubation. Absorbance at 585 nm was determined from each well on the following day. The percentage of cell viability was calculated using the following formula: Cell viability (%)=Cells number treated/Cells number DMSO control×100. Data was obtained from three independent experiments.

Structure (SMILES): COc1ccc2cc1Oc1ccc(cc1)C[C@H]1c3c(cc4c(c3Oc3cc5c(cc3OC)CCN(C)[C@@H]5C2)OCO4)CCN1C [cepharanthine]
- IC50: 4.52 to 61.8 µM
